Experimental data published in article PMC11470957, “Principles of paralog-specific targeted protein degradation engaging the C-degron E3 KLHDC2” (Nature Communications, 2024).
Where two headings read alike, the source gives them in different places.

Molecular target: BRD3 (Homo sapiens, UniProt Q15059)
Assay: Western blot of BRD3 levels after cellular dosing
Details: for remaining activity at 2.19382 µM: Log SJ46420 (uM) 2.19382; for remaining activity at 2.19382 µM / remaining activity at 2.49485 µM / remaining activity at 2.79588 µM / remaining activity at 3.09691 µM / remaining activity at 3.39794 µM: Rep1, Rep2; for remaining activity at 2.49485 µM: Log SJ46420 (uM) 2.49485; for remaining activity at 2.79588 µM: Log SJ46420 (uM) 2.79588; for remaining activity at 3.09691 µM: Log SJ46420 (uM) 3.09691; for remaining activity at 3.39794 µM: Log SJ46420 (uM) 3.39794
[1] = 22Rv1, read-out: BRD3 (DMSO = 100), 22Rv1 cells
[2] = PC-3, read-out: BRD3 (DMSO = 100), PC3 cells

Chain of BRD3 (Q15059 whole entry): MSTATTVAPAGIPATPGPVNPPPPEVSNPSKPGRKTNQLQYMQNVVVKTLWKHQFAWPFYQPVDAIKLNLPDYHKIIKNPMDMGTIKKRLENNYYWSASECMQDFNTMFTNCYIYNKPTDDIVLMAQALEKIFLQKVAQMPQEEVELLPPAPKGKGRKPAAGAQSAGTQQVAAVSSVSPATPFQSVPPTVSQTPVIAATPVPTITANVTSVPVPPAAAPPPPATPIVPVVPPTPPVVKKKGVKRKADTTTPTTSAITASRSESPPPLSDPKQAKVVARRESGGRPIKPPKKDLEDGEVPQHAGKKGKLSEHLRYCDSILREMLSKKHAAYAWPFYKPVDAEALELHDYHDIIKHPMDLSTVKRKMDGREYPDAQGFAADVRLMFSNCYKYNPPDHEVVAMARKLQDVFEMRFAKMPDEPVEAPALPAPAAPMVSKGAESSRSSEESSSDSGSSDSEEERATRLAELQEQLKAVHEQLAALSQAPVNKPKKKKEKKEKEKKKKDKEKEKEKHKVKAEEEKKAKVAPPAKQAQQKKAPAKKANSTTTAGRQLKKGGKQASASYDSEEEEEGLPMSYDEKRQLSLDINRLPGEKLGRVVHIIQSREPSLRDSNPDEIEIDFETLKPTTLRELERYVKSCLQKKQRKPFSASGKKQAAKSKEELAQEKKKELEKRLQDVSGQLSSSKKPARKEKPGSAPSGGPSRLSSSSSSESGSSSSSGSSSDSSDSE

COC(=O)CNC(=O)Cc1csc(-c2ccc3cccc(OCCN4CCN(C(=O)C[C@@H]5N=C(c6ccc(Cl)cc6)c6c(sc(C)c6C)-n6c(C)nnc65)CC4)c3c2)n1 [SJ46420]
remaining activity at 0.63 µM (22Rv1, 24 h, read-out: BRD3 level relative to DMSO (100%), 22Rv1, 0.63µM, 24 h, Fig S6f): 45 ± 4.6% | remaining activity at 1.3 µM (22Rv1, 24 h, read-out: BRD3 level relative to DMSO (100%), 22Rv1, 1.3µM, 24 h, Fig S6f): 27 ± 2.2% | remaining activity at 2.5 µM (22Rv1, 24 h, read-out: BRD3 level relative to DMSO (100%), 22Rv1, 2.5µM, 24 h, Fig S6f): 21 ± 3.7% | remaining activity at 5 µM (22Rv1, 24 h, read-out: BRD3 level relative to DMSO (100%), 22Rv1, 5µM, 24 h, Fig S6f): 4.3 ± 3.5% | remaining activity at 10 µM (22Rv1, 24 h, read-out: BRD3 level relative to DMSO (100%), 22Rv1, 10µM, 24 h, Fig S6f): 2.9 ± 2.8% | remaining activity at 2.19382 µM [1]: 71.3% | remaining activity at 2.49485 µM [1]: 46.9% | remaining activity at 2.79588 µM [1]: 42.3% | remaining activity at 3.09691 µM [1]: 29.2% | remaining activity at 3.39794 µM [1]: 23.9% | Dmax (22Rv1, read-out: BRD3 Dmax, 22Rv1, 24 h dose): 93.7% | remaining activity at 0.156 µM (22Rv1, read-out: BRD3 level, Western blot quantification (DMSO = 100), Fig S6f, 22RV1 KO/rescue Dose Response, 0.156 uM): 71.3% | remaining activity at 0.313 µM (22Rv1, read-out: BRD3 level, Western blot quantification (DMSO = 100), Fig S6f, 22RV1 KO/rescue Dose Response, 0.313 uM): 46.9% | remaining activity at 0.625 µM (22Rv1, read-out: BRD3 level, Western blot quantification (DMSO = 100), Fig S6f, 22RV1 KO/rescue Dose Response, 0.625 uM): 42.3% | remaining activity at 1.25 µM (22Rv1, read-out: BRD3 level, Western blot quantification (DMSO = 100), Fig S6f, 22RV1 KO/rescue Dose Response, 1.25 uM): 29.2% | remaining activity at 2.5 µM (22Rv1, read-out: BRD3 level, Western blot quantification (DMSO = 100), Fig S6f, 22RV1 KO/rescue Dose Response, 2.5 uM): 23.9% | remaining activity at 0.16 µM (24 h, read-out: BRD3 level relative to DMSO (100%), PC3, 0.16µM, 24 h, Fig S6e): 107 ± 8.6% | remaining activity at 0.31 µM (24 h, read-out: BRD3 level relative to DMSO (100%), PC3, 0.31µM, 24 h, Fig S6e): 72 ± 3.2% | remaining activity at 0.63 µM (24 h, read-out: BRD3 level relative to DMSO (100%), PC3, 0.63µM, 24 h, Fig S6e): 32 ± 5% | remaining activity at 1.3 µM (24 h, read-out: BRD3 level relative to DMSO (100%), PC3, 1.3µM, 24 h, Fig S6e): 13 ± 2.8% | remaining activity at 2.5 µM (24 h, read-out: BRD3 level relative to DMSO (100%), PC3, 2.5µM, 24 h, Fig S6e): 7.3 ± 2.7% | remaining activity at 5 µM (24 h, read-out: BRD3 level relative to DMSO (100%), PC3, 5µM, 24 h, Fig S6e): 4.8 ± 2.4% | remaining activity at 10 µM (24 h, read-out: BRD3 level relative to DMSO (100%), PC3, 10µM, 24 h, Fig S6e): 1.8 ± 2.1% | BRD3 levels in U2OS cell line with KLHDC2 knocked out (24 h dose, Fig 6b): unaffected | remaining activity at 0.2 µM (AU565, 8 h, read-out: BRD3 level relative to DMSO (100%), AU565, 0.2µM, 8 h, Fig S6c): 56 ± 3.4% | remaining activity at 1 µM (AU565, 8 h, read-out: BRD3 level relative to DMSO (100%), AU565, 1µM, 8 h, Fig S6c): 29 ± 2.4% | remaining activity at 5 µM (AU565, 8 h, read-out: BRD3 level relative to DMSO (100%), AU565, 5µM, 8 h, Fig S6c): 3.9 ± 1.1% | remaining activity at 0.2 µM (AU565, read-out: BRD3 level, Western blot quantification (DMSO = 100), Fig S6c, AU565 Cells, 0.2 uM): 58.8% | remaining activity at 1 µM (AU565, read-out: BRD3 level, Western blot quantification (DMSO = 100), Fig S6c, AU565 Cells, 1 uM): 30.4% | remaining activity at 5 µM (AU565, read-out: BRD3 level, Western blot quantification (DMSO = 100), Fig S6c, AU565 Cells, 5 uM): 4.75% | remaining activity at 2.5 µM (HEK-293T, 24 h, read-out: BRD3 level relative to DMSO (100%), 293T, 2.5µM, 24 h, Fig S6a): 44 ± 2.3% | remaining activity at 5 µM (HEK-293T, 24 h, read-out: BRD3 level relative to DMSO (100%), 293T, 5µM, 24 h, Fig S6a): 18 ± 3.7% | remaining activity at 2.5 µM (HEK-293T, read-out: BRD3 level, Western blot quantification (DMSO = 100), Fig S6a, 293T cells, 2.5 uM): 46% | remaining activity at 5 µM (HEK-293T, read-out: BRD3 level, Western blot quantification (DMSO = 100), Fig S6a, 293T cells, 5 uM): 20.9% | remaining activity at 2.5 µM (MDA-MB-468, 24 h, read-out: BRD3 level relative to DMSO (100%), MDA-MB-468, 2.5µM, 24 h, Fig S6b): 41 ± 3.3% | remaining activity at 5 µM (MDA-MB-468, 24 h, read-out: BRD3 level relative to DMSO (100%), MDA-MB-468, 5µM, 24 h, Fig S6b): 20 ± 2.9% | remaining activity at 10 µM (MDA-MB-468, 24 h, read-out: BRD3 level relative to DMSO (100%), MDA-MB-468, 10µM, 24 h, Fig S6b): 15 ± 2.2% | remaining activity at 2 µM (MDA-MB-468, read-out: BRD3 level, Western blot quantification (DMSO = 100), Fig S6b, MDA-MB468 Cells, 2 uM): 39.3% | remaining activity at 5 µM (MDA-MB-468, read-out: BRD3 level, Western blot quantification (DMSO = 100), Fig S6b, MDA-MB468 Cells, 5 uM): 17.8% | remaining activity at 10 µM (MDA-MB-468, read-out: BRD3 level, Western blot quantification (DMSO = 100), Fig S6b, MDA-MB468 Cells, 10 uM): 13.8% | selectivity for BRD3 over BRD4 (DC50) (PC3): ~ 28 fold | remaining activity at 2.19382 µM [2]: 108% | remaining activity at 2.49485 µM [2]: 70.7% | remaining activity at 2.79588 µM [2]: 29.3% | remaining activity at 3.09691 µM [2]: 11.3% | remaining activity at 3.39794 µM [2]: 5.44% | remaining activity at 1 µM (SK-BR-3, 2 h, read-out: BRD3 level relative to DMSO (100%), SKBR3, 1µM, 2hr, Fig S6g): 49 ± 6.7% | remaining activity at 5 µM (SK-BR-3, 2 h, read-out: BRD3 level relative to DMSO (100%), SKBR3, 5µM, 2hr, Fig S6g): 35 ± 5.2% | remaining activity at 1 µM (SK-BR-3, 2 h, read-out: BRD3 level, Western blot quantification (DMSO = 100), Fig S6g, SKBR3 Time course, 1 uM, 2hr): 54.5% | remaining activity at 5 µM (SK-BR-3, 2 h, read-out: BRD3 level, Western blot quantification (DMSO = 100), Fig S6g, SKBR3 Time course, 5 uM, 2hr): 39.4% | remaining activity at 1 µM (SK-BR-3, 4 h, read-out: BRD3 level relative to DMSO (100%), SKBR3, 1µM, 4hr, Fig S6g): 36 ± 6.9% | remaining activity at 5 µM (SK-BR-3, 4 h, read-out: BRD3 level relative to DMSO (100%), SKBR3, 5µM, 4hr, Fig S6g): 13 ± 2.9% | remaining activity at 5 µM (SK-BR-3, 4 h, read-out: BRD3 level relative to DMSO (100%), SKBR3, 5µM, 4hr, Fig S6j): 31 ± 5.6% | remaining activity at 1 µM (SK-BR-3, 4 h, read-out: BRD3 level, Western blot quantification (DMSO = 100), Fig S6g, SKBR3 Time course, 1 uM, 4hr): 41.9% | remaining activity at 5 µM (SK-BR-3, 4 h, read-out: BRD3 level, Western blot quantification (DMSO = 100), Fig S6g, SKBR3 Time course, 5 uM, 4hr): 15.1% | remaining activity at 1 µM (SK-BR-3, 8 h, read-out: BRD3 level relative to DMSO (100%), SKBR3, 1µM, 8hr, Fig S6g): 32 ± 3.5% | remaining activity at 5 µM (SK-BR-3, 8 h, read-out: BRD3 level relative to DMSO (100%), SKBR3, 5µM, 8hr, Fig S6g): 8.8 ± 2.6% | remaining activity at 1 µM (SK-BR-3, 8 h, read-out: BRD3 level, Western blot quantification (DMSO = 100), Fig S6g, SKBR3 Time course, 1 uM, 8hr): 35%
